One assay concerns EGFP-HD72Q. Briefly: Immunoblot of EGFP-HD72Q expression in GA treated COS-1 cells. The format is cell-based. As to conditions: GA 18-360 nM, 40 hours. How it is done: (§1) (A) Expression of EGFP-HD72Q, Hsp40, Hsp70, and Hsp90 in COS-1 cells. […] Equal amounts (10 μg) of protein were loaded. […] Aggregates were detected using the filter retardation assay. Filters were probed with the HD1 antibody and signal intensities quantified using a Fuji-imager (LAS 2000). […] Values shown are the mean of three independent experiments (±S.E).
(§2) A further linker was introduced in order to generate the appropriate reading frame, resulting in pTL1-HA3. Hsp70-pTLHA3 was generated by PCR amplification of the human Hsp70A gene and cloning into pTL1-HA3. Hdj-1-pTL10Flag was generated by ligating the human HDJ-1 gene, derived from pQE9-His-Hsp40 (33), into pTL10SFlag (a kind gift of D. Devys and J.-L. Mandel). pEGFP-HD72Q was generated by PCR amplification of the exon 1 of human HD from patient DNA and cloning into pEGFP-C1 (Clontech). All constructs were verified by sequencing.
Control cells were treated with DMSO. […]
SDS-PAGE and Western blot analysis was performed according to standard procedures. […] Captured aggregates were detected by incubation with HD1 IgG (diluted 1:5000) followed by incubation with alkaline phosphatase conjugated anti-rabbit IgG and the fluorescent substrate AttoPhos. Quantitation of the captured aggregates was performed using a Fuji-imager (LAS 2000) and AIDA 1.0 image analysis software.
For orientation: Immunoblotting shows a protein as a band on a membrane.

Another assay relates to Hsp70. In words: Immunoblot of Hsp70 expression in GA treated COS-1 cells expressing EGFP-HD72Q. The format is cell-based. As to conditions: GA 360 nM, 40 hours. The protocol:
(§3) Equal amounts (10 μg) of protein were loaded. […] Aggregates were detected using the filter retardation assay.
(§4) Control cells were treated with DMSO.
(§5) Protein concentration was determined by the BioRad assay.

The test system of another assay is Hsp40. In words: Immunoblot of Hsp40 expression in GA treated COS-1 cells expressing EGFP-HD72Q. The format is cell-based. Particulars: GA 360 nM, 40 hours. The protocol:
as §3, §4, §5

Assay [1] relates to SDS-insoluble EGFP-HD72Q protein aggregates. Briefly: Filter retardation assay for SDS-insoluble EGFP-HD72Q protein aggregates in COS-1 cells. The format is cell-based, monkey. As to conditions: filtration assay. The protocol: as §1, §2
Control cells were treated with DMSO. As alternative transfection method, the Lipofectamine Plus Reagent (GibcoBRL Life Technologies) was used according to the manufacturer's instruction.
SDS-PAGE and Western blot analysis was performed according to standard procedures. For the filter retardation assay (27,30) protein samples (1-20 μg) were heated at 98° C. for 3 min in 2% SDS and 50 mM DTT and filtered through a 0.2 μm cellulose acetate membrane (Schleicher & Schuell) using a BRL dot-blot filtration unit. Captured aggregates were detected by incubation with HD1 IgG (diluted 1:5000) followed by incubation with alkaline phosphatase conjugated anti-rabbit IgG and the fluorescent substrate AttoPhos. Quantitation of the captured aggregates was performed using a Fuji-imager (LAS 2000) and AIDA 1.0 image analysis software.
Using this assay SDS-resistant huntingtin protein aggregates can be immunologically detected and quantified.

Consider 1 molecule from patent publication US20040235813A1, “Compounds that inhibit hsp90 and stimulate hsp70 and hsp40, useful in the prevention or treatment of diseases associated with protein aggregation and amyloid formation” (priority 2001, published 2004).

The structures appear in SMILES notation.

`COC1=C2C[C@@H](C)C[C@H](OC)[C@H](O)[C@@H](C)/C=C(\C)[C@H](OC(N)=O)[C@@H](OC)/C=C\C=C(/C)C(=O)NC(=CC1=O)C2=O` [GA, Geldanamycin]: the “effect on EGFP-HD72Q expression” value in the assay on EGFP-HD72Q is on record as “no effect”. Besides, the “up-regulation of Hsp70 compared to the untreated controls” value in the assay with Hsp70 is listed as 3-4 fold. Also, the “up-regulation of Hsp40 compared to the untreated controls” value in the assay on Hsp40 is given as 3-4 fold. The “reduction of the amount of insoluble protein aggregates” value is recorded as “approximately 30%” in assay [1] (GA 18 nM), around 60% in assay [1] (GA 90 nM), around 70% in assay [1] (GA 180 nM) and around 80% in assay [1] (GA 360 nM).
